Laboratory results reported in patent publication US10251395B2, “Substituted furano-/thienocycloalkylamino-2-pyrimidine derivatives and use thereof for controlling undesired plant growth” (Bayer CropScience Aktiengesellschaft, priority 2015, dated 2019).

What was measured:
Type in all cases: in vivo
[1] = system: Abutilon theophrasti; assay: Pre-emergence herbicidal effect; details: Dosage 80 g/ha, scored visually after 3 weeks
In short: (§1)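 Seeds sown in sandy loam and covered with soil; WP or EC formulations sprayed onto the soil surface as aqueous suspension/emulsion at 600 to 800 L/ha water with 0.2% wetting agent. Greenhouse-grown; damage scored visually after 3 weeks against untreated controls (100% = plants dead, 0% = like control).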

[2] = system: Amaranthus retroflexus; assay: Pre-emergence herbicidal effect; details: scored visually after 3 weeks
In short: as §1

[3] = system: Setaria viridis; assay: Pre-emergence herbicidal effect; details: scored visually after 3 weeks
In short: as §1

[4] = system: Echinochloa crus-galli; assay: Pre-emergence herbicidal effect; details: scored visually after 3 weeks
In short: as §1

[5] = system: Matricaria inodora; assay: Pre-emergence herbicidal effect; details: scored visually after 3 weeks
In short: as §1

[6] = system: Avena fatua; assay: Pre-emergence herbicidal effect; details: scored visually after 3 weeks
In short: as §1

[7] = system: Lolium multiflorum; assay: Pre-emergence herbicidal effect; details: scored visually after 3 weeks
In short: as §1

[8] = system: Polygonum convolvulus; assay: Pre-emergence herbicidal effect; details: scored visually after 3 weeks
In short: as §1

[9] = system: Alopecurus myosuroides; assay: Pre-emergence herbicidal effect; details: scored visually after 3 weeks
In short: as §1

[10] = system: Veronica persica; assay: Pre-emergence herbicidal effect; details: scored visually after 3 weeks
In short: as §1

[11] = system: Viola tricolor; assay: Pre-emergence herbicidal effect; details: scored visually after 3 weeks
In short: as §1

[12] = system: Stellaria media; assay: Pre-emergence herbicidal effect; details: scored visually after 3 weeks
In short: as §1

[13] = system: Abutilon theophrasti; assay: Post-emergence herbicidal effect; details: assessed visually after about 3 weeks vs untreated controls
In short: (§2)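 Greenhouse weeds grown in sandy loam were sprayed at the one-leaf stage, 2–3 weeks after sowing, with WP or EC formulations in 600–800 L/ha water plus 0.2% wetting agent. Damage was scored visually after about 3 weeks as percent activity relative to untreated controls, where 100% means the plants died.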

[14] = system: Amaranthus retroflexus; assay: Post-emergence herbicidal effect; details: assessed visually after about 3 weeks vs untreated controls
In short: as §2

[15] = system: Setaria viridis; assay: Post-emergence herbicidal effect; details: assessed visually after about 3 weeks vs untreated controls
In short: as §2

[16] = system: Echinochloa crus-galli; assay: Post-emergence herbicidal effect; details: assessed visually after about 3 weeks vs untreated controls
In short: as §2

[17] = system: Matricaria inodora; assay: Post-emergence herbicidal effect; details: assessed visually after about 3 weeks vs untreated controls
In short: as §2

[18] = system: Avena fatua; assay: Post-emergence herbicidal effect; details: 320 g/ha, assessed visually after about 3 weeks vs untreated controls
In short: as §2

[19] = system: Polygonum convolvulus; assay: Post-emergence herbicidal effect; details: assessed visually after about 3 weeks vs untreated controls
In short: as §2

[20] = system: Alopecurus myosuroides; assay: Post-emergence herbicidal effect; details: 320 g/ha, assessed visually after about 3 weeks vs untreated controls
In short: as §2

[21] = system: Veronica persica; assay: Post-emergence herbicidal effect; details: assessed visually after about 3 weeks vs untreated controls
In short: as §2

[22] = system: Viola tricolor; assay: Post-emergence herbicidal effect; details: assessed visually after about 3 weeks vs untreated controls
In short: as §2

[23] = system: Stellaria media; assay: Post-emergence herbicidal effect; details: assessed visually after about 3 weeks vs untreated controls
In short: as §2

[24] = system: Ipomoea purpurea; assay: Post-emergence herbicidal effect; details: assessed visually after about 3 weeks vs untreated controls
In short: as §2

Cc1cc2c(s1)CCCC2Nc1ncc(C(F)(F)F)c(N)n1 (racemic) [compound 11]
ABUTH pre-emergence efficacy (herbicidal activity) [1]: 100% | AMARE pre-emergence efficacy (herbicidal activity) ([2]; Dosage 80 g/ha): 100% | AMARE pre-emergence efficacy (herbicidal activity) ([2]; Dosage 320 g/ha): 100% | SETVI pre-emergence efficacy (herbicidal activity) ([3]; Dosage 80 g/ha): 100% | SETVI pre-emergence efficacy (herbicidal activity) ([3]; Dosage 320 g/ha): 100% | ECHCG pre-emergence efficacy (herbicidal activity) ([4]; Dosage 80 g/ha): 100% | ECHCG pre-emergence efficacy (herbicidal activity) ([4]; Dosage 320 g/ha): 100% | MATIN pre-emergence efficacy (herbicidal activity) ([5]; Dosage 80 g/ha): 100% | MATIN pre-emergence efficacy (herbicidal activity) ([5]; Dosage 320 g/ha): 100% | AVEFA pre-emergence efficacy (herbicidal activity) ([6]; Dosage 80 g/ha): 60% | AVEFA pre-emergence efficacy (herbicidal activity) ([6]; Dosage 320 g/ha): 90% | LOLMU pre-emergence efficacy (herbicidal activity) ([7]; Dosage 80 g/ha): 100% | LOLMU pre-emergence efficacy (herbicidal activity) ([7]; Dosage 320 g/ha): 100% | POLCO pre-emergence efficacy (herbicidal activity) ([8]; Dosage 80 g/ha): 100% | POLCO pre-emergence efficacy (herbicidal activity) ([8]; Dosage 320 g/ha): 100% | ALOMY pre-emergence efficacy (herbicidal activity) ([9]; Dosage 80 g/ha): 90% | ALOMY pre-emergence efficacy (herbicidal activity) ([9]; Dosage 320 g/ha): 100% | VERPE pre-emergence efficacy (herbicidal activity) ([10]; Dosage 80 g/ha): 100% | VERPE pre-emergence efficacy (herbicidal activity) ([10]; Dosage 320 g/ha): 100% | VIOTR pre-emergence efficacy (herbicidal activity) ([11]; Dosage 80 g/ha): 100% | VIOTR pre-emergence efficacy (herbicidal activity) ([11]; Dosage 320 g/ha): 100% | STEME pre-emergence efficacy (herbicidal activity) ([12]; Dosage 80 g/ha): 100% | STEME pre-emergence efficacy (herbicidal activity) ([12]; Dosage 320 g/ha): 100% | post-emergence efficacy ABUTH ([13]; 80 g/ha): 100% | post-emergence efficacy ABUTH ([13]; 320 g/ha): 100% | post-emergence efficacy AMARE ([14]; 80 g/ha): 90% | post-emergence efficacy AMARE ([14]; 320 g/ha): 90% | post-emergence efficacy SETVI ([15]; 80 g/ha): 90% | post-emergence efficacy SETVI ([15]; 320 g/ha): 90% | post-emergence efficacy ECHCG ([16]; 80 g/ha): 100% | post-emergence efficacy ECHCG ([16]; 320 g/ha): 100% | post-emergence efficacy MATIN ([17]; 80 g/ha): 90% | post-emergence efficacy MATIN ([17]; 320 g/ha): 100% | post-emergence efficacy AVEFA [18]: 80% | post-emergence efficacy POLCO ([19]; 80 g/ha): 90% | post-emergence efficacy POLCO ([19]; 320 g/ha): 90% | post-emergence efficacy ALOMY [20]: 90% | post-emergence efficacy VERPE ([21]; 80 g/ha): 80% | post-emergence efficacy VERPE ([21]; 320 g/ha): 90% | post-emergence efficacy VIOTR ([22]; 80 g/ha): 100% | post-emergence efficacy VIOTR ([22]; 320 g/ha): 100% | post-emergence efficacy STEME ([23]; 80 g/ha): 90% | post-emergence efficacy STEME ([23]; 320 g/ha): 100% | post-emergence efficacy PHBPU ([24]; 80 g/ha): 90% | post-emergence efficacy PHBPU ([24]; 320 g/ha): 90%
